This note sets out measurements from ChEMBL document CHEMBL1128935, “Synthesis and antibacterial, activity of 4-ureido trinems” (1996).

Values after ≈ are worked out from the molar mass of the structure shown.

Holding throughout (assay type): functional
The subject of one assay is Bacteroides fragilis. Briefly: In vitro antibacterial activity against Bacteroides fragilis 2017.
Assay [1] has as its system Escherichia coli. The assay is described as follows: In vitro antibacterial activity against Escherichia coli 1919 PM.
For another assay, the system named is Staphylococcus aureus. The assay is described as follows: In vitro antibacterial activity against Staphylococcus aureus 853.
The subject of assay [2] is Pseudomonas aeruginosa. The assay is described as follows: In vitro antibacterial activity against Pseudomonas aeruginosa 2032 WT.
For the next assay, the system named is Streptococcus pneumoniae. Briefly: In vitro antibacterial activity against Streptococcus pneumoniae 3512.
Assay [3] concerns Pseudomonas aeruginosa. The assay is described as follows: In vitro antibacterial activity against Pseudomonas aeruginosa P. aeruginosa 1911.
The subject of assay [4] is Escherichia coli. Briefly: In vitro antibacterial activity against Escherichia coli 1850 WT.
Another assay concerns Clostridium perfringens. The assay is described as follows: In vitro antibacterial activity against Clostridium perfringens 615.

On to `C[C@@H](O)[C@H]1C(=O)N2C(C(=O)[O-])=C3[C@H](CCC[C@@H]3N(C)C(=O)NCCO)[C@H]12.[Na+]`, for which the MIC was 0.25 µg/mL in the assay on Bacteroides fragilis; below 0.12 µg/mL in the assay on Escherichia coli [1]; 0.25 µg/mL in the assay with Staphylococcus aureus; 8 µg/mL in the assay on Pseudomonas aeruginosa [2]; below 0.12 µg/mL with Streptococcus pneumoniae; 16 µg/mL with Pseudomonas aeruginosa [3]. Moreover, the minimum inhibitory concentration (MIC) with Escherichia coli [4] is 0.5 µg/mL; against Clostridium perfringens it was below 0.12 µg/mL.
`C[C@@H](O)[C@H]1C(=O)N2C(C(=O)[O-])=C3[C@H](CCC[C@@H]3N(C)C(=O)NC(C)(C)C)[C@H]12.[Na+]`: the MIC is 0.5 µg/mL with Bacteroides fragilis; 0.5 µg/mL in the assay with Escherichia coli [1]; 0.5 µg/mL against Staphylococcus aureus; 2 µg/mL against Pseudomonas aeruginosa [2]; below 0.12 µg/mL against Streptococcus pneumoniae; 16 µg/mL against Pseudomonas aeruginosa [3]. For the same molecule, the MIC against Escherichia coli [4] was 4 µg/mL; against Clostridium perfringens, below 0.12 µg/mL.
`CCNC(=O)N(C)[C@H]1CCC[C@H]2C1=C(C(=O)[O-])N1C(=O)[C@H]([C@@H](C)O)[C@@H]21.[Na+]`: the MIC is 0.5 µg/mL in the assay with Bacteroides fragilis; 0.25 µg/mL in the assay with Escherichia coli [1]; 0.25 µg/mL against Staphylococcus aureus; 4 µg/mL in the assay on Pseudomonas aeruginosa [2]; below 0.12 µg/mL in the assay with Streptococcus pneumoniae; 16 µg/mL against Pseudomonas aeruginosa [3]. In addition, the MIC with Escherichia coli [4] is 2 µg/mL; in the assay on Clostridium perfringens, below 0.12 µg/mL.
In the case of `C[C@@H](O)[C@H]1C(=O)N2C(C(=O)[O-])=C3[C@H](CCC[C@@H]3N(C)C(N)=O)[C@H]12.[Na+]`, the minimum inhibitory concentration (MIC) against Bacteroides fragilis was below 0.12 µg/mL; with Escherichia coli [1], below 0.12 µg/mL; with Staphylococcus aureus, below 0.12 µg/mL; with Pseudomonas aeruginosa [2], 1 µg/mL; against Streptococcus pneumoniae, below 0.12 µg/mL; against Pseudomonas aeruginosa [3], 8 µg/mL. Moreover, the MIC in the assay on Escherichia coli [4] is 0.25 µg/mL; in the assay on Clostridium perfringens, below 0.12 µg/mL.
With `C[C@@H](O)[C@H]1C(=O)N2C(C(=O)O)=C(SCCNC=N)C[C@H]12` [IMIPENEM ANHYDROUS], the MIC in the assay on Bacteroides fragilis was 0.06 µg/mL (≈ 0.2 µM); with Escherichia coli [1], 0.5 µg/mL (≈ 1.67 µM); in the assay on Staphylococcus aureus, 0.1 µg/mL (≈ 0.334 µM); against Pseudomonas aeruginosa [2] it was 4 µg/mL (≈ 13.4 µM); against Streptococcus pneumoniae, below 0.01 µg/mL; against Pseudomonas aeruginosa [3], 4 µg/mL (≈ 13.4 µM). The MIC was found to be 0.5 µg/mL (≈ 1.67 µM) with Escherichia coli [4] and 0.03 µg/mL (≈ 0.1 µM) in the assay on Clostridium perfringens.
`CO[C@H]1CCC[C@H]2C1=C(C(=O)[O-])N1C(=O)[C@H]([C@@H](C)O)[C@@H]21.[Na+]` [SANFETRINEM SODIUM]: the MIC against Bacteroides fragilis is 0.06 µg/mL; with Escherichia coli [1], 0.5 µg/mL; in the assay with Staphylococcus aureus, 0.25 µg/mL; in the assay on Pseudomonas aeruginosa [2] it was 16 µg/mL; against Streptococcus pneumoniae, below 0.01 µg/mL; with Pseudomonas aeruginosa [3], above 32 µg/mL. Further, the results for the MIC in the assay on Escherichia coli [4] and in the assay on Clostridium perfringens were 0.5 µg/mL and 0.03 µg/mL, respectively.

As usually defined, the MIC is the smallest concentration in the dilution series that meets the test's criterion for growth inhibition.
